Assay [1] has as its system MT4. Put plainly: Inhibitory activity against 100I strain and 103N strain of HIV-I in MT-4 cell was determined. The assay is classed as functional, cell-based. Conditions: Homo sapiens.
The subject of assay [2] is Human immunodeficiency virus 1. Put plainly: Inhibitory activity against 100I strain of HIV-I in MT-4 cell was determined. Type of assay: functional, organism-based. Conditions: Human immunodeficiency virus 1, MT4.
Assay [3] relates to MT4. Description: Inhibitory activity against 103N strain and 181C strain of HIV-I in MT-4 cell was determined. Conditions: Homo sapiens. Type of assay: functional, cell-based.
Assay [4] concerns Human immunodeficiency virus 1. Put plainly: Inhibitory activity against 103N strain of HIV-I in MT-4 cell was determined. The assay is classed as functional, organism-based. Conditions: Human immunodeficiency virus 1, MT4.
Assay [5] concerns Human immunodeficiency virus 1. Put plainly: Inhibitory activity against 181C strain of HIV-I in MT-4 cell was determined. The assay is classed as functional, organism-based. The following applies: Human immunodeficiency virus 1, MT4.
Assay [6] relates to Human immunodeficiency virus 1. Description: Inhibitory activity against 188L strain of HIV-1 in MT-4 cell was determined. Type of assay: functional, organism-based. Conditions: Human immunodeficiency virus 1, MT4.
The test system of assay [7] is Human immunodeficiency virus 1. Description: Inhibitory activity against LAI strain of HIV-I in MT-4 cell was determined. Type of assay: functional, organism-based. The following applies: Human immunodeficiency virus 1, MT4.
The subject of assay [8] is MT4. Description: Inhibitory activity against LAI strain of HIV-I in MT-4 cell was determined; Not determined. The assay is classed as functional, cell-based. Conditions: Homo sapiens.

For `Cc1cc(C#N)cc(C)c1Oc1ncnc(Nc2ccc(C#N)cc2)n1`, the half-maximal inhibitory concentration (IC50) (as a rule, the concentration needed to halve the response being measured) in assay [1] came to 3980 nM; in assay [2], 1000 nM; in assay [3] it was 398 nM; in assay [4], 20 nM; in assay [5], 501 nM; in assay [6], 251 nM. The molecule further yielded an IC50 in assay [7] of 4 nM.
Consider `Cc1cc(C)c(Cc2nc(N)nc(Nc3ccc(C#N)cc3)n2)c(C)c1`, for which the IC50 stood at 82 nM in assay [2]; 3 nM in assay [4]; 15 nM in assay [5]; 45 nM in assay [6]; 0.8 nM in assay [7].
As for `Cc1cc(C#N)cc(C)c1Nc1ncnc(Nc2ccc(C#N)cc2)n1`, the IC50 in assay [1] is 2510 nM; in assay [2], 251 nM; in assay [3] it was 126 nM; in assay [4] it was 8 nM; in assay [5] it was 50 nM; in assay [6], 50 nM. Moreover, in assay [7], the 50% inhibitory concentration (IC50) came to 1 nM.
In turn, `CCCONc1nc(Cc2c(Cl)cccc2Cl)nc(Nc2ccc(C#N)cc2)n1` came in with an IC50 in assay [8] of 100000 nM.
`Cc1cc(Br)cc(C)c1Nc1ncnc(Nc2ccc(C#N)cc2)n1`: the IC50 stood at 3160 nM in assay [1]; 79 nM in assay [2]; 126 nM in assay [3]; 6 nM in assay [4]; 16 nM in assay [5]; 63 nM in assay [6]. The same molecule returned an IC50 in assay [7] of 0.6 nM.
For `Cc1cc(C)c(C)c(Cc2nc(N)nc(Nc3ccc(C#N)cc3)n2)c1C`, the IC50 is 6700 nM in assay [2]; 85 nM in assay [4]; 1190 nM in assay [5]; 367 nM in assay [6]; 4.6 nM in assay [7].
For the molecule `Cc1cc(C)c(Sc2ncnc(Nc3ccc(C#N)cc3)n2)c(C)c1`, the IC50 in assay [1] is greater than 10000 nM; in assay [2], 32 nM; in assay [4] it was 3 nM; in assay [5] it was 13 nM; in assay [6] it was 20 nM; in assay [7] it was 2 nM.
In assay [8], `CCONc1nc(Cc2c(Cl)cccc2Cl)nc(Nc2ccc(C#N)cc2)n1` came in with an IC50 of 24.6 nM.
Take `Cc1cc(C)c(Oc2ncnc(Nc3ccc(C#N)cc3)n2)c(C)c1`: the 50% inhibitory concentration (IC50) in assay [1] was greater than 10000 nM; in assay [2] it was 20 nM; in assay [4] it was 3 nM; in assay [5], 20 nM; in assay [6] it was 63 nM; in assay [7] it was 0.6 nM.
